# In patent US8530652B2, “Pyrrolopyrazoles, potent kinase inhibitors” (Agouron Pharmaceuticals, Inc., priority 2005, dated 2013):
# Molecular target: PAK4 kinase domain (PAK4 KD) (Homo sapiens (Human), UniProt O96013)
# Test: PAK4 kinase domain enzymatic assay (coupled PK/LDH, NADH absorbance at 340 nm)
# Type: biochemical
# Details: PAK4 kinase domain, 25 nM PAK4 KD, 0.04 mM ATP, pH 7.5
# Excerpt: Cloning, expression, and purification of recombinant PAK4 Kinase domain (PAK4 KD): The cDNA coding for PAK4 was amplified from the EST clone (#12) (purchased from Research Genetics) by using PCR. […] The PCR amplified product was cloned into Topo vector (Invitrogen Inc.), and verified by DNA sequencing. PAK4 KD was then subcloned into expression plasmid pET28a(+), pET24a(+), or pGST4.5. The recombinant plasmids containing PAK4 KD was transformed into BL21(DE3) cells for recombinant protein expression. […] The cells were then harvested and lyzed for protein purification. Ni-NTA column (pET28a(+), pET24a(+)) and glutathione column (pGST4.5) were used for the purification.
# PAK4 kinase domain enzymatic assay conditions: the enzymatic activity of PAK4 KD was measured by its ability to catalyze the transfer of a phosphate residue from a nucleoside triphosphate to an amino acid side chain of a commercially available peptide (amino acid sequence […]). The conversion of ATP to ADP accompanies the catalytic reaction. The PAK4 KD catalyzed production of ADP from ATP was coupled to the oxidation of NADH through the activities of pyruvate kinase (PK) and lactate dehydrogenase (LDH). The conversion of NADH to NAD^+ is monitored by the decrease in absorbance at 340 nm (e340=6.22 cm^−1mM^−1) using a Molecular Devices SPECTRAMAX 190 in conjunction with the Biomec FX. Typical reaction solutions contain 2 mM phosphoenolpyruvate, 0.35 mM NADH, 10 mM MgCl2, 1 mM DTT, 0.4 mM peptide ([…]) 0.04 mM ATP, 1 units/mL PK, 1 units/mL LDH, 0.01% Tween 20 in 50 mM HEPES, pH 7.5. […] The PAK KD Ki of each compound of the invention (the inhibitor) was calculated based on multiple of Percent Inhibition numbers of the inhibitor at different inhibitor concentrations. The peptide (amino sequence […]) was purchased from American Peptide Company. NADH, MgCl2, HEPES, DTT, ATP and PK/LDH were purchased from Sigma. Tween 20 was purchased from Calbiochem.
# Chain of PAK4 kinase domain (PAK4 KD) (O96013 321-572): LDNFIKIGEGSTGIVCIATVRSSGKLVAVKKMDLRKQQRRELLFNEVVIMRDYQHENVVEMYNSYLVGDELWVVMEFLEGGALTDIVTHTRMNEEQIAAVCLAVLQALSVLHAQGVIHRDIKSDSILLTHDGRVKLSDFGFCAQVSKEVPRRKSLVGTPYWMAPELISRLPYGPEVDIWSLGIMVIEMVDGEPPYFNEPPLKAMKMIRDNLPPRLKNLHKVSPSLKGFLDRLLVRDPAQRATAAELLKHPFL
row,Structure (SMILES),Ki [nM]
1,"Cc1cc2c(Nc3n[nH]c4c3CN(C(=O)O[C@H](CN(C)C)c3ccccc3)C4(C)C)ncnc2s1 [Example 71, (1S)-2-(dimethylamino)-1-phenylethyl 6,6-dimethyl-3-[(6-methylthieno[2,3-d]pyrimidin-4-yl)amino]-4,6-dihydropyrrolo[3,4-c]pyrazole-5(1H)-carboxylate]",5.2
2,"CC1(C)c2[nH]nc(Nc3nc(C4CC4)nc4ccccc34)c2CN1C(=O)N[C@@H]1C[C@H]1c1ccccc1 (relative stereo) [Example 86, 3-[(2-cyclopropylquinazolin-4-yl)amino]-6,6-dimethyl-N-[trans-2-phenylcyclopropyl]-4,6-dihydropyrrolo[3,4-c]pyrazole-5(1H)-carboxamide]",55
3,"CSc1nc(Nc2n[nH]c3c2CN(C(=O)N[C@@H]2C[C@H]2c2ccccc2)C3(C)C)cc(C(F)(F)F)n1 (relative stereo) [Example 11, 6,6-dimethyl-3-{[2-(methylthio)-6-(trifluoromethyl)pyrimidin-4-yl]amino}-N-[trans-2-phenylcyclopropyl]-4,6-dihydropyrrolo[3,4-c]pyrazole-5(1H)-carboxamide]",960
4,"COc1nc(Nc2n[nH]c3c2CN(C(=O)N[C@H]2C[C@@H]2c2ccccc2)C3(C)C)nc(OC)n1 (relative stereo) [Example 14, 3-[(4,6-dimethoxy-1,3,5-triazin-2-yl)amino]-6,6-dimethyl-N-[trans-2-phenylcyclopropyl]-4,6-dihydropyrrolo[3,4-c]pyrazole-5(1H)-carboxamide]",270
5,"CN(C)C[C@@H](NC(=O)N1Cc2c(Nc3ncnc4c3ncn4C)n[nH]c2C1(C)C)c1ccccc1 [Example 57, N-[(1S)-2-(dimethylamino)-1-phenylethyl]-6,6-dimethyl-3-[(9-methyl-9H-purin-6-yl)amino]-4,6-dihydropyrrolo[3,4-c]pyrazole-5(1H)-carboxamide]",940
6,"CC1(C)c2[nH]nc(Nc3ncncc3F)c2CN1C(=O)N[C@H]1C[C@@H]1c1ccccc1 (relative stereo) [Example 48, 3-[(5-fluoropyrimidin-4-yl)amino]-6,6-dimethyl-N-[trans-2-phenylcyclopropyl]-4,6-dihydropyrrolo[3,4-c]pyrazole-5(1H)-carboxamide]",1000
7,CNC(=O)[C@@H]1CCCN1c1nc(Nc2n[nH]c3c2CN(C(=O)NC2CC2c2ccccc2)C3(C)C)nc(OC)n1 (some centres unmarked) [Example 17],770
8,"Cc1ncnc(Nc2n[nH]c3c2CN(C(=O)N2C[C@@H]4CCCN4C[C@@H]2C)C3(C)C)c1F [Example 82, N-(5-fluoro-6-methylpyrimidin-4-yl)-6,6-dimethyl-5-{[(3S,8aS)-3-methylhexahydropyrrolo[1,2-a]pyrazin-2(1H)-yl]carbonyl}-1,4,5,6-tetrahydropyrrolo[3,4-c]pyrazol-3-amine]",2500
9,Cc1cc(C)nc(Nc2n[nH]c3c2CN(C(=O)NC2C[C@@H]2c2ccccc2)C3(C)C)n1 (some centres unmarked) [Example 24],640
10,"Cc1csc2c(Nc3n[nH]c4c3CN(C(=O)N3C[C@@H]5CCCN5C[C@@H]3C)C4(C)C)ncnc12 [Example 81, N-(6,6-dimethyl-5-{[(3S,8aS)-3-methylhexahydropyrrolo[1,2-a]pyrazin-2(1H)-yl]carbonyl}-1,4,5,6-tetrahydropyrrolo[3,4-c]pyrazol-3-yl)-7-methylthieno[3,2-d]pyrimidin-4-amine]",84
11,"COc1nc(Nc2n[nH]c3c2CN(C(=O)NC2CC2c2ccccc2)C3(C)C)nc(N2CC2C)n1 (stereo not drawn) [Example 18, 3-{[4-methoxy-6-(2-methylaziridin-1-yl)-1,3,5-triazin-2-yl]amino}-6,6-dimethyl-N-[trans-2-phenylcyclopropyl]-4,6-dihydropyrrolo[3,4-c]pyrazole-5(1H)-carboxamide]",340
12,"CCc1cc(Nc2n[nH]c3c2CN(C(=O)N[C@H](CN(C)C)c2ccccc2)C3(C)C)ncn1 [Example 54, N-[(1S)-2-(Dimethylamino)-1-phenylethyl]-3-[(6-ethylpyrimidin-4-yl)amino]-6,6-dimethyl-4,6-dihydropyrrolo[3,4-c]pyrazole-5(1H)-carboxamide]",140
13,"COc1nc(Nc2n[nH]c3c2CN(C(=O)N[C@@H]2C[C@H]2c2ccccc2)C3(C)C)nc(N2CCCC2)n1 (relative stereo) [Example 19, 3-[(4-methoxy-6-pyrrolidin-1-yl-1,3,5-triazin-2-yl)amino]-6,6-dimethyl-N-[trans-2-phenylcyclopropyl]-4,6-dihydropyrrolo[3,4-c]pyrazole-5(1H)-carboxamide]",190
14,"CC1(C)c2[nH]nc(Nc3nc(N)nc(Cl)n3)c2CN1C(=O)N[C@@H]1C[C@H]1c1ccccc1 (relative stereo) [Example 8, 3-[(4-amino-6-chloro-1,3,5-triazin-2-yl)amino]-6,6-dimethyl-N-[trans-2-phenylcyclopropyl]-4,6-dihydropyrrolo[3,4-c]pyrazole-5(1H)-carboxamide]",610
15,"CC1(C)c2[nH]nc(Nc3cc(Cl)nc(Cl)n3)c2CN1C(=O)N[C@H]1C[C@@H]1c1ccccc1 (relative stereo) [Example 4, 3-[(2,6-dichloropyrimidin-4-yl)amino]-6,6-dimethyl-N-[trans-2-phenylcyclopropyl]-4,6-dihydropyrrolo[3,4-c]pyrazole-5(1H)-carboxamide]",110
16,"Cc1cc(C(F)(F)F)cc(Nc2n[nH]c3c2CN(C(=O)N[C@H]2C[C@@H]2c2ccccc2)C3(C)C)n1 (relative stereo) [Example 26, 3-[(4-trifluoromethyl-6-methylpyridin-2-yl)amino]-6,6-dimethyl-N-[trans-2-phenylcyclopropyl]-4,6-dihydropyrrolo[3,4-c]pyrazole-5(1H)-carboxamide]",220
17,"CC1(C)c2[nH]nc(Nc3cccc(C(F)(F)F)n3)c2CN1C(=O)N[C@H]1C[C@@H]1c1ccccc1 (relative stereo) [Example 27, 3-[(6-trifluoromethylpyridin-2-yl)amino]-6,6-dimethyl-N-[trans-2-phenylcyclopropyl]-4,6-dihydropyrrolo[3,4-c]pyrazole-5(1H)-carboxamide]",200
18,"CC1(C)c2[nH]nc(Nc3ncnc4ccccc34)c2CN1C(=O)N[C@@H]1C[C@H]1c1ccccc1 (relative stereo) [Example 85, 3-(quinazolin-4-ylamino)-6,6-dimethyl-N-[trans-2-phenylcyclopropyl]-4,6-dihydropyrrolo[3,4-c]pyrazole-5(1H)-carboxamide]",100
19,"COc1nc(Nc2n[nH]c3c2CN(C(=O)NC2CC2c2ccccc2)C3(C)C)nc(N2CCC[C@H]2C(N)=O)n1 (stereo partly drawn) [Example 21, 3-({4-[(2S)-2-(aminocarbonyl)pyrrolidin-1-yl]-6-methoxy-1,3,5-triazin-2-yl}amino)-6,6-dimethyl-N-[trans-2-phenylcyclopropyl]-4,6-dihydropyrrolo[3,4-c]pyrazole-5(1H)-carboxamide]",240
20,CN(C)c1nc(Nc2n[nH]c3c2CN(C(=O)NC2C[C@@H]2c2ccccc2)C3(C)C)nc(N2CCC[C@H]2C(N)=O)n1 (some centres unmarked) [Example 22],720
21,"CC1(C)c2[nH]nc(Nc3cc(C#N)ccn3)c2CN1C(=O)N[C@H]1C[C@@H]1c1ccccc1 (relative stereo) [Example 29, 3-[(4-cyanopyridin-2-yl)amino]-6,6-dimethyl-N-[trans-2-phenylcyclopropyl]-4,6-dihydropyrrolo[3,4-c]pyrazole-5(1H)-carboxamide]",660
22,"CC1(C)c2[nH]nc(Nc3nccc(C(F)(F)F)n3)c2CN1C(=O)N[C@H]1C[C@@H]1c1ccccc1 (relative stereo) [Example 28, 6,6-dimethyl-N-[trans-2-phenylcyclopropyl]-3-{[4-(trifluoromethyl)pyrimidin-2-yl]amino}-4,6-dihydropyrrolo[3,4-c]pyrazole-5(1H)-carboxamide]",270
23,"CC1(C)c2[nH]nc(Nc3cc(C(F)(F)F)ccn3)c2CN1C(=O)N[C@H]1C[C@@H]1c1ccccc1 (relative stereo) [Example 25, 3-[(4-trifluoromethylpyridin-2-yl)amino]-6,6-dimethyl-N-[trans-2-phenylcyclopropyl]-4,6-dihydropyrrolo[3,4-c]pyrazole-5(1H)-carboxamide]",780
